Test results published in patent EP0786252A1 (priority 1994, dated 1996).
Like-named read-outs stand apart in the source and are kept apart here. Blank lines part the entries; values can stand above or below the compound they belong to.

Columns and labels:
[1] = system: cisplatin-resistant P388 cells (P388/CDDP); test: Antiproliferative activity against drug-resistant tumor cells (cell count after 72 hours); type: cell-based
Method: (§1) Compound (I) was tested for its antiproliferative activity against lymphocytic leukemia P388 cells, adriamycin-resistant P388 cells (P388/ADM), cisplatin-resistant P388 cells (P388/CDDP), cyclophosphamide-resistant P388 cells (P388/CPM), and mitomycin C-resistant P388 cells (P388/MMC), in the manner described below.
(§2) P388 cells were suspended in an RPMI-1640 medium containing 10 % fetal calf serum, 100 units/ml penicillin, 100 µg/ml streptomycin and 20 µM 2-mercaptoethanol at a concentration of 3 x 10^4 cells/ml, and 0.1 ml of the cell suspension was put into each well of a 96-well microplate.
(§3) The cells were further incubated in the carbon dioxide incubator for 72 hours, then the culture supernatant was removed, and the number of the cells was counted using a cell counter. The number of non-treated cells was compared with that of cells treated with the compound (I), from which was obtained the concentration of the chemical that inhibited 50 % of the cell growth. This is referred to as IC50.
(§4) For the others, P388/ADM cells, P388/CDDP cells, P388/CPM cells and P388/MMC cells, IC50 of the compound (I) was obtained in the same manner as above.

[2] = system: adriamycin-resistant P388 cells (P388/ADM); test: as above; type: cell-based
Method: as §1, §2, §3, §4

[3] = system: cyclophosphamide-resistant P388 cells (P388/CPM); test: as above; type: cell-based
Method: as §1, §2, §3, §4

[4] = system: mitomycin C-resistant P388 cells (P388/MMC); test: as above; type: cell-based
Method: as §1, §2, §3, §4

[5] = system: lymphocytic leukemia P388 cells; test: as above; type: cell-based
Method: as §1
as §2, with “microplate. The cells were incubated in a carbon dioxide incubator (5 % carbon dioxide) overnight at 37°C, and 0.05 ml/well of a compound (I) that had been suitably diluted with the medium was added to each well.” for “microplate.”
as §3

[6] = system: ddY mice; test: Acute toxicity, intravenous administration; type: in vivo; conditions: male ddY mice; for Death Rate: 30 days
Description: (§5) Compound (I) was intravenously administered to ddY mice (male; body weight, 19 to 21 g). 30 days after the administration, LD50 and LD10 were obtained through probit analysis.

[7] = Acute toxicity, intravenous administration; type: in vivo; conditions: mouse, in vivo, male ddY mice, 30 days after administration, probit analysis
Description: as §5

IC50 ([1]; Mus musculus, P388/CDDP cells, 72 hours incubation, read-out: IC50): 18.1 nM | IC50 ([2]; Mus musculus, P388/ADM cells, 72 hours incubation, read-out: IC50): 571 nM | IC50 ([3]; Mus musculus, P388/CPM cells, 72 hours incubation, read-out: IC50): 5.79 nM | IC50 ([4]; Mus musculus, P388/MMC cells, 72 hours incubation, read-out: IC50): 14.7 nM | IC50 ([5]; Mus musculus, P388 cells, 72 hours incubation, read-out: IC50): 6.62 nM
Compound: COc1cccc2c1C(=O)c1c(O)c3c(c(O)c1C2=O)C[C@@](O)(C(=O)CO)C[C@@H]3O[C@H]1C[C@H](N)[C@H](O)[C@H](C)O1 [ADM, Adriamycin]

Compound: [NH2][Pt]([NH2])([Cl])[Cl] [CDDP, Cisplatin]
IC50 ([1]; P388/CDDP cells, 72 hours incubation, read-out: IC50): 4080 nM | IC50 ([2]; P388/ADM cells, 72 hours incubation, read-out: IC50): 88.3 nM | IC50 ([3]; P388/CPM cells, 72 hours incubation, read-out: IC50): 504 nM | IC50 ([4]; P388/MMC cells, 72 hours incubation, read-out: IC50): 1090 nM | IC50 ([5]; P388 cells, 72 hours incubation, read-out: IC50): 75.4 nM

Compound: COC(=O)c1c(C)[nH]c2c(OC(=O)N3CCN(C)CC3)cc3c(c12)C(CBr)CN3C(=O)c1cc2cc(OC)c(OC)c(OC)c2[nH]1 (stereo not shown) [Compound 1]
IC50 ([1]; Mus musculus, P388, 72 h): 19.8 nM | IC50 ([2]; Mus musculus, P388/ADM, 72 h): 15.6 nM | IC50 ([3]; Mus musculus, P388, 72 h): 6.34 nM | IC50 ([4]; Mus musculus, P388, 72 h): 15.3 nM | Mean Survival Time ([6]; Dose 0.48 mg/kg): No died | Death Rate ([6]; Dose 0.48 mg/kg): 0/20 | Mean Survival Time ([6]; Dose 0.57 mg/kg): 11.6 +/- 3.4 days +/- SD | Death Rate ([6]; Dose 0.57 mg/kg): 2/20 | Mean Survival Time ([6]; Dose 0.69 mg/kg): 11.6 +/- 1.5 days +/- SD | Death Rate ([6]; Dose 0.69 mg/kg): 3/20 | Mean Survival Time ([6]; Dose 0.82 mg/kg): 8.3 +/- 1.8 days +/- SD | Death Rate ([6]; Dose 0.82 mg/kg): 10/20 | Mean Survival Time ([6]; Dose 0.99 mg/kg): 6.8 +/- 1.6 days +/- SD | Death Rate ([6]; Dose 0.99 mg/kg): 17/20 | Mean Survival Time ([6]; Dose 1.2 mg/kg): 5.6 +/- 1.8 days +/- SD | Death Rate ([6]; Dose 1.2 mg/kg): 20/20 | LD10 ([6]; 30 days after administration, probit analysis): 0.63 mg/kg | LD50 at 720 h [7]: 0.81 mg/kg | IC50 ([5]; Mus musculus, P388, 72 h): 8.17 nM

Compound: CO[C@@]12[C@H](COC(N)=O)C3=C(C(=O)C(C)=C(N)C3=O)N1C[C@@H]1N[C@@H]12 [MMC, Mitomycin C]
IC50 ([1]; Mus musculus, P388, 72 h): 186 nM | IC50 ([2]; Mus musculus, P388/ADM, 72 h): 56.9 nM | IC50 ([3]; Mus musculus, P388, 72 h): 94.4 nM | IC50 ([4]; Mus musculus, P388, 72 h): > 300 nM | IC50 ([5]; Mus musculus, P388, 72 h): 40.2 nM
